Type in all cases: functional
The test system of test [1] is A-431. Nature of the test: Growth inhibition of human A431 cells assessed as reduction in cell growth after 72 hrs by MTT assay. Particulars: A-431, 72 h.
Test [2] has as its system DU-145. In words: Growth inhibition of human DU145 cells assessed as reduction in cell growth after 72 hrs by MTT assay. Conditions: DU-145, 72 h. For orientation: Formazan colour is commonly taken as a measure of viable cells.
Test [3] concerns MIA PaCa-2. Nature of the test: Growth inhibition of human MIAPaCa2 cells assessed as reduction in cell growth after 72 hrs by MTT assay. Conditions: MIA PaCa-2, 72 h.
Test [4] deals with NCI-H460. In words: Growth inhibition of human H460 cells assessed as reduction in cell growth after 72 hrs by MTT assay. Conditions: NCI-H460, 72 h.
Test [5] in a line: Growth inhibition of human BE(2)-C cells assessed as reduction in cell growth after 72 hrs by MTT assay.
Test [6] relates to MCF7. Nature of the test: Growth inhibition of human MCF7 cells assessed as reduction in cell growth after 72 hrs by MTT assay. Conditions: MCF7, 72 h.
In test [7] the test system is A2780. In words: Growth inhibition of human A2780 cells assessed as reduction in cell growth after 72 hrs by MTT assay. Conditions: A2780, 72 h.
Test [8] has as its system HT-29. In words: Growth inhibition of human HT-29 cells assessed as reduction in cell growth after 72 hrs by MTT assay. Conditions: HT-29, 72 h.
Test [9] in a line: Growth inhibition of human SJ-G2 cells assessed as reduction in cell growth after 72 hrs by MTT assay. Particulars: SJ-G2, 72 h.
For test [10], the system named is SW480. Nature of the test: Growth inhibition of human SW480 cells assessed as reduction in cell growth after 72 hrs by MTT assay. Conditions: SW480, 72 h.
A short description of test [11]: Growth inhibition of mouse SMA cells assessed as reduction in cell growth after 72 hrs by MTT assay.
The subject of test [12] is MIA PaCa-2. In words: Growth inhibition of human MIAPaCa2 cells assessed as reduction in cell growth at 25uM after 72 hrs by MTT assay. Conditions: MIA PaCa-2, 72 h, read-out: GI.
Test [13] can be described thus: Growth inhibition of mouse SMA cells assessed as reduction in cell growth at 25uM after 72 hrs by MTT assay. Conditions: read-out: GI.
Test [14] relates to HT-29. In words: Growth inhibition of human HT-29 cells assessed as reduction in cell growth at 25uM after 72 hrs by MTT assay. Conditions: HT-29, 72 h, read-out: GI.
Test [15] deals with NCI-H460. In words: Growth inhibition of human H460 cells assessed as reduction in cell growth at 25uM after 72 hrs by MTT assay. Particulars: NCI-H460, 72 h, read-out: GI.
Test [16] is described as follows: Growth inhibition of human SJ-G2 cells assessed as reduction in cell growth at 25uM after 72 hrs by MTT assay. Conditions: SJ-G2, 72 h, read-out: GI.
Test [17] deals with SW480. In words: Growth inhibition of human SW480 cells assessed as reduction in cell growth at 25uM after 72 hrs by MTT assay. Particulars: SW480, 72 h, read-out: GI.
For test [18], the system named is DU-145. Nature of the test: Growth inhibition of human DU145 cells assessed as reduction in cell growth at 25uM after 72 hrs by MTT assay. Particulars: DU-145, 72 h, read-out: GI.
Test [19] relates to MCF7. Nature of the test: Growth inhibition of human MCF7 cells assessed as reduction in cell growth at 25uM after 72 hrs by MTT assay. Conditions: MCF7, 72 h, read-out: GI.
Test [20] concerns A2780. In words: Growth inhibition of human A2780 cells assessed as reduction in cell growth at 25uM after 72 hrs by MTT assay. Conditions: A2780, 72 h, read-out: GI.
Test [21] concerns A-431. Nature of the test: Growth inhibition of human A431 cells assessed as reduction in cell growth at 25uM after 72 hrs by MTT assay. Conditions: A-431, 72 h, read-out: GI.
Test [22] in a line: Growth inhibition of human BE(2)-C cells assessed as reduction in cell growth at 25uM after 72 hrs by MTT assay. Conditions: read-out: GI.

For orientation: GI50 means the concentration that inhibits growth by half. Regarding `N#C/C(=C\c1ccc([N+](=O)[O-])cc1)c1ccc(Cl)c(Cl)c1`, the GI50 is 7.1 µM in the test on A-431 [1]; 18 µM with DU-145 [2]; 27 µM with MIA PaCa-2 [3]; 69 µM in the test with NCI-H460 [4]; 8.9 µM in test [5]; 0.127 µM in the test with MCF7 [6]. Moreover, the 50% growth inhibitory concentration (GI50) with A2780 [7] is 12 µM; with HT-29 [8], 3.1 µM; in test [9], 14 µM; in the test on SW480 [10] it was 8.4 µM.
`N#C/C(=C\c1ccc(C(F)(F)F)cc1)c1ccc(Cl)c(Cl)c1`: the GI50 with A-431 [1] stood at 53 µM; in the test on DU-145 [2] it was 45 µM; with MIA PaCa-2 [3] it was 35 µM; with NCI-H460 [4], 36 µM; in [5] it was 43 µM; in the test with MCF7 [6] it was 31 µM. The 50% growth inhibitory concentration (GI50) in the test with A2780 [7] was determined as 41 µM; with HT-29 [8] it was 35 µM; in test [9] it was 41 µM; in the test with SW480 [10] it was 49 µM; in test [11], 45 µM.
For `N#C/C(=C\c1c[nH]c2ccccc12)c1ccc(Cl)c(Cl)c1`, the GI50 in the test on A-431 [1] was determined as 0.8 µM; with DU-145 [2], 3.1 µM; in the test on MIA PaCa-2 [3] it was 1.6 µM; in the test on NCI-H460 [4], 1 µM; in test [5], 1 µM; in the test with MCF7 [6], 1.3 µM. The GI50 in the test on A2780 [7] worked out at 0.9 µM; in the test on HT-29 [8] it was 0.85 µM; in [9] it was 1.7 µM; with SW480 [10] it was 2.1 µM; in test [11] it was 1.3 µM.
For the molecule `N#C/C(=C\c1ccco1)c1ccc(Cl)c(Cl)c1`, the 50% growth inhibitory concentration (GI50) was 39 µM in the test with A-431 [1]; 42 µM in the test with DU-145 [2]; 46 µM in the test with MIA PaCa-2 [3]; 52 µM with NCI-H460 [4]; 38 µM in test [5]; 7 µM in the test with MCF7 [6]. Also, the GI50 turned out to be 38 µM in the test on A2780 [7]; 36 µM with HT-29 [8]; 50 µM in test [9]; 45 µM with SW480 [10]; 36 µM in test [11].
With `N#C/C(=C\c1ccc(F)cc1)c1ccc(Cl)c(Cl)c1`, the concentration for 50% growth inhibition (GI50) with A-431 [1] turned out to be 10 µM; in the test on DU-145 [2], 18 µM; in the test on MIA PaCa-2 [3], 11 µM; in the test on NCI-H460 [4], 10 µM; in [5] it was 13 µM; with MCF7 [6] it was 6.5 µM. The 50% growth inhibitory concentration (GI50) in the test on A2780 [7] is 9.5 µM; in the test with HT-29 [8], 9.3 µM; in [9] it was 16 µM; in the test on SW480 [10], 5.6 µM.
On to `COc1ccc(/C=C(\C#N)c2ccc(Cl)c(Cl)c2)cc1`, for which the GI50 in the test with A-431 [1] worked out at 0.6 µM; with DU-145 [2], 1.4 µM; in the test with MIA PaCa-2 [3] it was 0.7 µM; in the test with NCI-H460 [4] it was 0.7 µM; in test [5] it was 2.7 µM; in the test on MCF7 [6] it was 0.6 µM. Besides, the concentration for 50% growth inhibition (GI50) in the test on A2780 [7] is 0.7 µM; in the test on HT-29 [8], 0.52 µM; in test [9] it was 1.5 µM; with SW480 [10] it was 1.4 µM.
`O=C(O)/C(=C\c1ccc([N+](=O)[O-])cc1)c1ccc(Cl)c(Cl)c1`: the inhibition of growth at 25 µM is below 10% in the test on MIA PaCa-2 [12]; below 10% in test [13]; 28% with HT-29 [14]; below 10% with NCI-H460 [15]; below 10% in test [16]; below 10% in the test on SW480 [17]. Besides, the inhibition of growth at 25 µM is below 10% with DU-145 [18]; 11% in the test with MCF7 [19]; below 10% in the test with A2780 [20]; below 10% in the test on A-431 [21]; below 10% in test [22].
As to `COc1ccc(/C=C(\C(=O)O)c2ccc(Cl)c(Cl)c2)cc1`, the inhibition of growth at 25 µM in the test on MIA PaCa-2 [12] was below 10%; in test [13] it was below 10%; in the test with HT-29 [14], 11%; in the test on NCI-H460 [15] it was below 10%; in [16], below 10%; in the test with SW480 [17], below 10%. Further, the inhibition of growth at 25 µM (in the test with DU-145 [18]; with MCF7 [19]; with A2780 [20]; in the test with A-431 [21]; in [22]) was below 10% throughout.
Consider `Cc1[nH]c2ccccc2c1/C=C(\C#N)c1ccc(Cl)c(Cl)c1`, for which the 50% growth inhibitory concentration (GI50) in the test with A-431 [1] came out at 2.1 µM; in the test on DU-145 [2] it was 5.6 µM; in the test on MIA PaCa-2 [3], 2.4 µM; in the test with NCI-H460 [4], 2.2 µM; in test [5], 2 µM; with MCF7 [6], 2.8 µM. For the same molecule, the concentration for 50% growth inhibition (GI50) with A2780 [7] came to 2.2 µM; in the test on HT-29 [8], 1.9 µM; in [9], 4 µM; in the test with SW480 [10] it was 3.8 µM; in test [11] it was 2.9 µM.
Consider `Cc1ccc2[nH]cc(/C=C(\C#N)c3ccc(Cl)c(Cl)c3)c2c1`, for which the GI50 in the test with A-431 [1] turned out to be 3 µM; with DU-145 [2], 7.4 µM; in the test on MIA PaCa-2 [3], 3.7 µM; with NCI-H460 [4], 3 µM; in test [5], 3.4 µM; with MCF7 [6], 3.7 µM. Also, the 50% growth inhibitory concentration (GI50) in the test with A2780 [7] came to 3.2 µM; in the test on HT-29 [8], 2.8 µM; in [9] it was 5.3 µM; in the test on SW480 [10], 4.7 µM; in test [11], 4.1 µM.
On to `N#C/C(=C\c1c[nH]c2ccc(Cl)cc12)c1ccc(Cl)c(Cl)c1`, for which the GI50 with A-431 [1] came out at 7.7 µM; in the test on DU-145 [2] it was 12 µM; with MIA PaCa-2 [3], 11 µM; with NCI-H460 [4], 8.7 µM; in test [5], 8.6 µM; with MCF7 [6], 2.3 µM. In addition, the GI50 is 7.4 µM in the test on A2780 [7]; 7.1 µM in the test on HT-29 [8]; 9.7 µM in test [9]; 8.8 µM in the test on SW480 [10]; 6.7 µM in [11].
With `N#C/C(=C\c1c[nH]c2ccc(Br)cc12)c1ccc(Cl)c(Cl)c1`, the concentration for 50% growth inhibition (GI50) with A-431 [1] amounted to 7.3 µM; in the test with DU-145 [2], 13 µM; in the test on MIA PaCa-2 [3], 9 µM; in the test on NCI-H460 [4], 7.5 µM; in [5], 7 µM; in the test with MCF7 [6], 6.9 µM. Moreover, the GI50 in the test with A2780 [7] was found to be 6.8 µM; with HT-29 [8], 7 µM; in [9] it was 10 µM; in the test on SW480 [10], 8.2 µM; in [11] it was 9.2 µM.
On to `N#C/C(=C\c1c[nH]c2c1ccc1ccccc12)c1ccc(Cl)c(Cl)c1`, for which the concentration for 50% growth inhibition (GI50) with A-431 [1] is 3 µM; in the test on DU-145 [2] it was 8.7 µM; with MIA PaCa-2 [3], 6.1 µM; with NCI-H460 [4] it was 5 µM; in [5], 3.8 µM; in the test with MCF7 [6] it was 4 µM. The GI50 in the test on A2780 [7] is 3.7 µM; in the test with HT-29 [8], 4.2 µM; in test [9] it was 6.8 µM; in the test on SW480 [10], 7.5 µM; in test [11], 5.9 µM.
With `N#C/C(=C\c1ccc2[nH]ccc2c1)c1ccc(Cl)c(Cl)c1`, the GI50 with A-431 [1] turned out to be 0.37 µM; in the test on DU-145 [2] it was 1.04 µM; in the test on MIA PaCa-2 [3] it was 0.5 µM; in the test on NCI-H460 [4], 0.39 µM; in test [5], 0.33 µM; in the test on MCF7 [6] it was 0.23 µM. In addition, the 50% growth inhibitory concentration (GI50) in the test with A2780 [7] amounted to 0.41 µM; with HT-29 [8], 0.36 µM; in test [9], 0.83 µM; in the test with SW480 [10], 0.67 µM; in test [11] it was 0.74 µM.

Source of the values: ChEMBL document CHEMBL2086308, “Cytotoxic 2-phenyacrylnitriles, the importance of the cyanide moiety and discovery of potent broad spectrum cytotoxic agents” (2012).
